Assay results as given in ChEMBL document CHEMBL5442741, “ASAP - In vitro kinase profile” (2024).
Several values for one entry are separate records, joined by “and”; a condition that tells them apart may be missing. Identical values can stand only once.

Columns and labels:
[1] = biological target: Protein kinase C alpha type (Homo sapiens) (UniProt P17252); assay: Enzymatic radiometric [Km ATP] KinaseProfiler LeadHunter assay, kinase: PKC-alpha, catalogue number: 14-484KP The assay has been performed by Eurofins Discovery.; conditions: ATP concentration 45.0 uM, Test compound concentration 10.0 uM
[2] = biological target: Tyrosine-protein kinase Lyn (Homo sapiens) (UniProt P07948); assay: Enzymatic radiometric [Km ATP] KinaseProfiler LeadHunter assay, kinase: Lyn, catalogue number: 14-510KP The assay has been performed by Eurofins Discovery.; conditions: ATP concentration 70.0 uM, Test compound concentration 10.0 uM
[3] = biological target: T1, Mitogen-activated protein kinase kinase kinase 5 (Homo sapiens) (UniProt Q99683); assay: Enzymatic radiometric [Km ATP] KinaseProfiler LeadHunter assay, kinase: ASK1, catalogue number: 14-606KP The assay has been performed by Eurofins Discovery.; conditions: ATP concentration 200.0 uM, Test compound concentration 10.0 uM
T1 sequence (whole entry): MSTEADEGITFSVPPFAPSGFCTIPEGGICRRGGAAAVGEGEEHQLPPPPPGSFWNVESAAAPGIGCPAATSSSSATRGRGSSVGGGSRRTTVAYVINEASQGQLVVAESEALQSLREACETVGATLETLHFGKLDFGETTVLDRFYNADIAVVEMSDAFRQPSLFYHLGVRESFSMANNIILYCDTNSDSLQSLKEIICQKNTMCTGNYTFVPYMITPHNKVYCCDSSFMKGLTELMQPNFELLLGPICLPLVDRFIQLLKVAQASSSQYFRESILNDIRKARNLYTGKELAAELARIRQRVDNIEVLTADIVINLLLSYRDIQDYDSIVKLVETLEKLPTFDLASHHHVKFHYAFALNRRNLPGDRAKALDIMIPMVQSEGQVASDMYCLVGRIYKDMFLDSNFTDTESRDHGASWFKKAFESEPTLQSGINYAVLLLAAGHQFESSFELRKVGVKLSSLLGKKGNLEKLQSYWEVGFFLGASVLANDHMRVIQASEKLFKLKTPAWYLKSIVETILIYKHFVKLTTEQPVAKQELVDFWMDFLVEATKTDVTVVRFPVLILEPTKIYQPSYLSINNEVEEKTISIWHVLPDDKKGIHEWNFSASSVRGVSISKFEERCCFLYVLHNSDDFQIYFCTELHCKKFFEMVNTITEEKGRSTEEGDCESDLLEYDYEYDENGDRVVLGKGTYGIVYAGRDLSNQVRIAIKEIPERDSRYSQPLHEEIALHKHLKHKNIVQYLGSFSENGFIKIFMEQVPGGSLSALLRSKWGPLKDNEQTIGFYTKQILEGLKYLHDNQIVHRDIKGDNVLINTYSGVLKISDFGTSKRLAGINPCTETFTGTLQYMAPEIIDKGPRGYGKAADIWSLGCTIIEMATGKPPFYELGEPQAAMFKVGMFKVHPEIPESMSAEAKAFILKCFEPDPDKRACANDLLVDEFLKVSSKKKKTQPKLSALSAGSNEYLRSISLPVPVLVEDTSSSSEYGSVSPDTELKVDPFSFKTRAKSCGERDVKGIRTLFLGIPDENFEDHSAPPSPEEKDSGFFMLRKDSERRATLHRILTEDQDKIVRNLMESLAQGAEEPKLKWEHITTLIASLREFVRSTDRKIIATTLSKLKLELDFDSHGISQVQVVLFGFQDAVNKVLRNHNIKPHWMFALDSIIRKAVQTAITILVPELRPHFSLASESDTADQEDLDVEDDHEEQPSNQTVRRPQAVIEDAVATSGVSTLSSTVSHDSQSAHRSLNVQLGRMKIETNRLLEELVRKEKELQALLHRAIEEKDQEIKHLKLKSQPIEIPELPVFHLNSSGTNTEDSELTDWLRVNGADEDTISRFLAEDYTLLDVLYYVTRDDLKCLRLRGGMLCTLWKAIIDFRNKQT

Tyrosine-protein kinase Lyn (Homo sapiens), sequence (P07948 2-512 limits assumed): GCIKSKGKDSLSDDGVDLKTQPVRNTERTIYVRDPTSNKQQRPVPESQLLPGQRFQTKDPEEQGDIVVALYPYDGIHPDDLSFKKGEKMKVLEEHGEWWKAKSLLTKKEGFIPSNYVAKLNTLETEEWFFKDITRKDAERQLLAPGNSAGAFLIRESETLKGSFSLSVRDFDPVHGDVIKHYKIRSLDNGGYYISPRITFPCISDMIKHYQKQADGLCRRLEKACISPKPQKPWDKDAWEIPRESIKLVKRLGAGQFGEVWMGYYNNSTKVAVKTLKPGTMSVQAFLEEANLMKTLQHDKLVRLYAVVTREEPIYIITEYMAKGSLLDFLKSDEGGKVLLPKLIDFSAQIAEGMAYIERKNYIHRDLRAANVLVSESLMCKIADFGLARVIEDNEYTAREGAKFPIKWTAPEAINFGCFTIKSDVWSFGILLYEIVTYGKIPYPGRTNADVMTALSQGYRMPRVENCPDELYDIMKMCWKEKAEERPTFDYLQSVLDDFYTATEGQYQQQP

| Activity [1] | Activity [2] | Activity [3] | Structure (SMILES) |
| --- | --- | --- | --- |
| 104% | 112% | 108% | CC(C)[C@@H](Nc1ncnc2[nH]ccc12)c1ccc2c(c1)S(=O)(=O)CCC2 |
| 101% | 107% | 105% | CC(C)[C@@H](Nc1ncnc2[nH]c(C(=O)N[C@@H]3CCN(C)C3)cc12)c1ccc2c(c1)S(=O)(=O)CCC2 |
| 93% | 48% | 103% | Cc1nn(C)cc1-c1cc2c(N[C@H](c3ccc4c(c3)S(=O)(=O)CCC4)C(C)C)ncnc2[nH]1 |
| 98% | 104% | 105% | CC(C)[C@H](Nc1ncnc2[nH]ccc12)c1ccc2c(c1)S(=O)(=O)CCC2 |
| 99% | 47% |  | CNCc1cc(-c2cc3c(N[C@@H](c4ccc5c(c4)S(=O)(=O)CCC5)C(C)C)ncnc3[nH]2)co1 |

The remaining lines, values behind:

| Structure (SMILES) | Activity [1] | Activity [2] | Activity [3] |
| --- | --- | --- | --- |
| C[C@H](C(=O)O)[C@@H](NC(=O)c1ncnc2[nH]ccc12)c1ccc(Br)cc1 | 108% | 94% | 102% |
| COc1ccc([C@@H](Cc2nnn[nH]2)NC(=O)c2ncnc3[nH]ccc23)cc1 | 95% | 111% | 101% |
| CNC(=O)Cn1cc(-c2cc3c(N[C@@H](c4ccc5c(c4)S(=O)(=O)CCC5)C(C)C)ncnc3[nH]2)cn1 | 95% | 75% | 103% |
| CC(C)[C@@H](Nc1ncnc2[nH]c(-c3cnn(C)c3C#N)cc12)c1ccc2c(n1)OCCO2 | 90% and 99% |  |  |
| Cn1ncc(-c2cc3c(N[C@@H](c4ccc5c(n4)OCCO5)C(C)(C)C)ncnc3[nH]2)c1C#N | 87% | 101% | 108% |
| CC(C)[C@H](Nc1ncnc2[nH]c(-c3cnn(C)c3C#N)cc12)c1ccc2c(n1)OCCO2 |  | 79% | 106% |
| COc1ccc([C@H](Cc2nnn[nH]2)NC(=O)c2ncnc3[nH]ccc23)cc1 | 93% | 108% | 103% |
